# Measured values reported in patent US20260138980A1, “SPIRO COMPOUNDS AND USES THEREOF IN THE FIELD OF MEDICINE” (Kind Pharmaceutical, priority 2023, published 2026).
# System: EPO
# Test: Determination of EPO inhibition rate by compounds using Hep3B cells (EPO ELISA of culture supernatant)
# Assay type: cell-based
# Details: Homo sapiens, EPO induced with 30 μM (6′-hydroxy-3′-(4-methoxyphenyl)-8′-oxo-8′H-spiro[cyclopentane-1,5′-indolizine]-7′-carbonyl)glycine or its analogues, test compound 48 hours
# Procedure: Hep3B cells (from the Cell Bank of the Chinese Academy of Sciences, TCHu106) were seeded in a plate at a density of 5×10^4/mL and incubated overnight at 37° C. in a 5% CO2 incubator (Thermo Scientific BB150). The next day, the culture medium was replaced with medium containing 0.5% FBS (VivaCell C04001-500) to starve the cells for 6 hours. Subsequently, a DMSO solution of (6′-hydroxy-3′-(4-methoxyphenyl)-8′-oxo-8′H-spiro[cyclopentane-1,5′-indolizine]-7′-carbonyl)glycine or its analogues was added to achieve a final concentration of 30 μM. The plate was returned to the 37° C., 5% CO2 incubator for an additional 24 hours. Then, a DMSO solution of the test compound was added to achieve final concentrations of 30000 nM, 7500 nM, 1875 nM, 469 nM, 117 nM, 29 nM, 7.3 nM, 1.8 nM, 0.5 nM, and 0 nM (ten concentrations in total). Treatment continued for 48 hours. Cell culture supernatants were collected for EPO ELISA detection. The assay was performed according to the instructions of the ELISA kit (Sangon Biotech (Shanghai) Co., Ltd., D711311-0096). Absorbance was read at a wavelength of 450 nm using a microplate reader (Thermo Scientific Multiskan Go, 511191200).
# The compound inhibition rate was calculated using the formula: Inhibition Rate=1-100%*(EPO value of the treated well−EPO value of the blank well)/(EPO value of the Control well−EPO value of the blank well). The IC50 value was calculated by linear fitting of the inhibition rates. Herein, the Control well refers to the cell-containing well treated for 72 hours with a DMSO solution containing 0 nM of the test compound but containing 30 μM of (6′-hydroxy-3′-(4-methoxyphenyl)-8′-oxo-8′H-spiro[cyclopentane-1,5′-indolizine]-7′-carbonyl)glycine or its analogues. The EPO level in this well was set as 100%. The blank well refers to a cell-containing well without the addition of any compound.
row,Compound,IC50
1,"Fc1c(Br)ccc2c1C(I)=CCC21CN2C=C(C(F)(F)F)C=C(OC(F)F)C2=N1 (stereo not shown) [Example 13, 6′-Bromo-8-difluoromethoxy-5′-fluoro-4′-iodo-6-trifluoromethyl-2′H,3H-spiro[imidazo[1,2-a]pyridine-2,1′-naphthalene]]",116 nM
2,"Cc1nccc2c1C=CCC21CN2C=C(C(F)(F)F)C=C(OC(F)F)C2=N1 (stereo not shown) [Example 17, 8-Difluoromethoxy-1′-methyl-6-trifluoromethyl-3H,6′H-spiro[imidazo[1,2-a]pyridine-2,5′-isoquinoline]]",705 nM
3,"FC(F)OC1=CC(C(F)(F)F)=CN2CC3(CC=Cc4c3ccnc4Cl)N=C12 (racemic) [Example 2, 1′-Chloro-8-difluoromethoxy-6-trifluoromethyl-3H,6′H-spiro[imidazo[1,2-a]pyridine-2,5′-isoquinoline]]",35.8 nM
4,"FC(F)OC1=CC(C(F)(F)F)=CN2CC3(CC=C(Cl)c4c3ccnc4Cl)N=C12 (stereo not shown) [Example 7, 1′,8′-Dichloro-8-difluoromethoxy-6-trifluoromethyl-3H,6′H-spiro[imidazo[1,2-a]pyridine-2,5′-isoquinoline]]",24.4 nM
5,"FC1=Cc2c(ccnc2Cl)C2(C1)CN1C=C(C(F)(F)F)C=C(OC(F)F)C1=N2 (racemic) [Example 10, 1′-Chloro-8-difluoromethoxy-7′-fluoro-6-trifluoromethyl-3H,6′H-spiro[imidazo[1,2-a]pyridine-2,5′-isoquinoline]]",26.8 nM
6,"FC1=CC[C@]2(CN3C=C(C(F)(F)F)C=C(OC(F)F)C3=N2)c2cccc(F)c21 (single isomer, unassigned) [Example 15-B]",109 nM
7,"FC(F)OC1=CC(C(F)(F)F)=CN2CC3(CC(Cl)=Cc4c3ccnc4Cl)N=C12 (stereo not shown) [Example 9, 1′,7′-Dichloro-8-difluoromethoxy-6-trifluoromethyl-3H,6′H-spiro[imidazo[1,2-a]pyridine-2,5′-isoquinoline]]",47.9 nM
8,"FC(F)OC1=CC(C(F)(F)F)=CN2CC3(CC=Cc4cnccc43)N=C12 (stereo not shown) [Example 20, 8-Difluoromethoxy-6-trifluoromethyl-3H,6′H-spiro[imidazo[1,2-a]pyridine-2,5′-isoquinoline]]",813 nM
9,"FC1=Cc2c(ccnc2Cl)[C@@]2(C1)CN1C=C(C(F)(F)F)C=C(OC(F)F)C1=N2 (single isomer, unassigned) [Example 10-B]",26.9 nM
10,"Fc1cccc2c1C=CC[C@]21CN2C=C(C(F)(F)F)C=C(OC(F)F)C2=N1 (single isomer, unassigned) [Example 16-B]",20.4 nM
11,"FC1=CC[C@]2(CN3C=C(C(F)(F)F)C=C(OC(F)F)C3=N2)c2ccnc(Cl)c21 (single isomer, unassigned) [Example 1-B]",563 nM
12,"FC1=CCC2(CN3C=C(C(F)(F)F)C=C(OC(F)F)C3=N2)c2ccnc(Cl)c21 (racemic) [Example 1, 1′-Chloro-8-difluoromethoxy-8′-fluoro-6-trifluoromethyl-3H,6′H-spiro[imidazo[1,2-a]pyridine-2,5′-isoquinoline]]",29 nM
13,"FC1=Cc2c(ccnc2Cl)[C@]2(C1)CN1C=C(C(F)(F)F)C=C(OC(F)F)C1=N2 (single isomer, unassigned) [Example 10-A]",2150 nM
14,"FC(F)OC1=CC(C(F)(F)F)=CN2CC3(CC=C(C(F)(F)F)c4c3ccnc4Cl)N=C12 (stereo not shown) [Example 8, 1′-Chloro-8-difluoromethoxy-6,8′-bis(trifluoromethyl)-3H,6′H-spiro[imidazo[1,2-a]pyridine-2,5′-isoquinoline]]",148 nM
15,"CC1=CCC2(CN3C=C(C(F)(F)F)C=C(OC(F)F)C3=N2)c2ccnc(Cl)c21 (stereo not shown) [Example 6, 1′-Chloro-8-difluoromethoxy-8′-methyl-6-trifluoromethyl-3H,6′H-spiro[imidazo[1,2-a]pyridine-2,5′-isoquinoline]]",181 nM
16,"FC(F)OC1=CC(C(F)(F)F)=CN2C[C@@]3(CC=Cc4c3ccnc4Cl)N=C12 (single isomer, unassigned) [Example 2-B]",18.7 nM
17,"FC(F)OC1=CC(C(F)(F)F)=CN2C[C@]3(CC=Cc4c3ccnc4Cl)N=C12 (single isomer, unassigned) [Example 2-A]",365 nM
18,"O=[N+]([O-])c1c(Nc2cc(F)cc(Cl)c2)ccc2nonc12 [positive control compound, reference compound]",497 nM
19,"Fc1cccc2c1C(I)=CCC21CN2C=C(C(F)(F)F)C=C(OC(F)F)C2=N1 (stereo not shown) [Example 19, 8-Difluoromethoxy-5′-fluoro-4′-iodo-6-trifluoromethyl-2′H,3H-spiro[imidazo[1,2-a]pyridine-2,1′-naphthalene]]",302 nM

# These reach a lower IC50. Values come first.
row,IC50,Compound
1,7.01 nM,"Fc1cccc2c1C=CCC21CN2C=C(C(F)(F)F)C=C(OC(F)F)C2=N1 (racemic) [Example 16, 8-(Difluoromethoxy)-5′-fluoro-6-trifluoromethyl-2′H,3H-spiro[imidazo[1,2-a]pyridine-2,1′-naphthalene]]"
2,1.08 nM,"Fc1c(Br)ccc2c1C=CCC21CN2C=C(C(F)(F)F)C=C(OC(F)F)C2=N1 (stereo not shown) [Example 12, 6′-Bromo-8-(difluoromethoxy)-5′-fluoro-6-(trifluoromethyl)-2′H,3H-spiro[imidazo[1,2-a]pyridine-2,1′-naphthalene]]"
3,6.45 nM,"Fc1cccc2c1C=CC[C@@]21CN2C=C(C(F)(F)F)C=C(OC(F)F)C2=N1 (single isomer, unassigned) [Example 16-A]"
4,4.12 nM,"Fc1c(Br)ccc2c1C(Cl)=CCC21CN2C=C(C(F)(F)F)C=C(OC(F)F)C2=N1 (stereo not shown) [Example 14, 6′-Bromo-4′-chloro-8-difluoromethoxy-5′-fluoro-6-trifluoromethyl-2′H,3H-spiro[imidazo[1,2-a]pyridine-2,1′-naphthalene]]"
5,3.04 nM,"FC1=CCC2(CN3C=C(C(F)(F)F)C=C(OC(F)F)C3=N2)c2cccc(F)c21 (racemic) [Example 15, 8-(Difluoromethoxy)-4′,5′-difluoro-6-(trifluoromethyl)-2′H,3H-spiro[imidazo[1,2-a]pyridine-2,1′-naphthalene]]"
6,12.2 nM,"FC1=CCC2(CN3C=C(C(F)(F)F)C=C(OC(F)F)C3=N2)c2ccc(Br)c(F)c21 (stereo not shown) [Example 11, 6′-Bromo-8-difluoromethoxy-4′,5′-difluoro-6-trifluoromethyl-2′H,3H-spiro[imidazo[1,2-a]pyridine-2,1′-naphthalene]]"
7,2.12 nM,"FC1=CC[C@@]2(CN3C=C(C(F)(F)F)C=C(OC(F)F)C3=N2)c2cccc(F)c21 (single isomer, unassigned) [Example 15-A]"
8,3.48 nM,"Cc1ccc2c(c1F)C=CCC21CN2C=C(C(F)(F)F)C=C(OC(F)F)C2=N1 (stereo not shown) [Example 18, 8-Difluoromethoxy-5′-fluoro-6′-methyl-6-trifluoromethyl-2′H,3H-spiro[imidazo[1,2-a]pyridine-2,1′-naphthalene]]"
9,17.9 nM,"FC1=CC[C@@]2(CN3C=C(C(F)(F)F)C=C(OC(F)F)C3=N2)c2ccnc(Cl)c21 (single isomer, unassigned) [Example 1-A]"
